Measurements: patent US10836725B2, “Modulators of the integrated stress pathway” (Calico Life Sciences LLC, priority 2016, dated 2020)

The molecules below were run on ATF4 luciferase reporter (assay: ATF4-Luc assay in HEK293T cells carrying the ATF4 luciferase reporter (in vitro model of VWMD)). Details: 1 μg/mL tunicamycin, 7 hours, luminescence (One Glo).
Assay type: cell-based, human
Method in brief: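 Stable HEK293T line with human ATF4 5′-UTR–firefly luciferase reporter treated with 1 μg/mL tunicamycin plus 200 nM compound for 7 h. Luminescence read; EC50 derived.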

SMILES | EC50
O=C(COc1ccc(Cl)c(F)c1)NC12CC(C(=O)NCCc3c[nH]c4ccccc34)(C1)C2 [Compound 194] | < 250 nM

Same assay, conditions: Homo sapiens, HEK-293T, 1 μg/mL tunicamycin, 7 hours, luminescence (One Glo)

EC50 | SMILES
< 250 nM | O=C(COc1ccc(Cl)c(F)c1)NC12CCC(C(=O)NCc3ccc(C(F)(F)F)cc3)(CC1)C(O)C2 (stereo not shown) [Compound 110, 4-[2-(4-chloro-3-fluorophenoxy)acetamido]-2-hydroxy-N-{[4-(trifluoromethyl)phenyl]methyl}bicyclo[2.2.2]octane-1-carboxamide]
> 2000 nM | CCOc1ccc(CNC(=O)C23CC(NC(=O)COc4ccc(Cl)c(F)c4)(C2)C3)cc1 [Compound 240, 3-[2-(4-chloro-3-fluorophenoxy)acetamido]-N-[(4-ethoxyphenyl)methyl]bicyclo[1.1.1]pentane-1-carboxamide]
> 2000 nM | Cc1cnc(CNC(=O)C23CC(NC(=O)COc4ccc(Cl)c(F)c4)(C2)C3)cn1 [Compound 228, 3-[2-(4-chloro-3-fluorophenoxy)acetamido]-N-[(5-methylpyrazin-2-yl)methyl]bicyclo[1.1.1]pentane-1-carboxamide]
> 2000 nM | O=C(COc1ccc(Cl)c(F)c1)NC12CC(C(=O)NCc3ccc(F)c(C(F)(F)F)c3)(C1)C2 [Compound 180, 3-[2-(4-chloro-3-fluorophenoxy)acetamido]-N-{[4-fluoro-3-(trifluoromethyl)phenyl]methyl}bicyclo [1.1.1]pentane-1-carboxamide]
> 2000 nM | Cc1cc(CNC(=O)C23CC(NC(=O)COc4ccc(Cl)c(Cl)c4)(C2)C3)n(C)n1 [Compound 154, 3-[2-(3,4-dichlorophenoxy)acetamido]-N-[(1,3-dimethyl-1H-pyrazol-5-yl)methyl]bicyclo[1.1.1]pentane-1-carboxamide]
> 2000 nM | O=C(COc1ccc(Cl)c(F)c1)NC12CCC(C(=O)NCc3cncc(F)c3)(CC1)C(O)C2 (stereo not shown) [Compound 112, 4-[2-(4-chloro-3-fluorophenoxy)acetamido]-N-[(5-fluoropyridin-3-yl)methyl]-2-hydroxybicyclo[2.2.2]octane-1-carboxamide]
500 to 1000 nM | O=C(COc1ccc(Cl)c(F)c1)NC12CCC(C(=O)NCc3cccc(OC(F)(F)F)c3)(CC1)C(O)C2 (stereo not shown) [Compound 136, 4-[2-(4-chloro-3-fluorophenoxy)acetamido]-2-hydroxy-N-{[3-(trifluoromethoxy)phenyl]methyl}bicyclo[2.2.2]octane-1-carboxamide]
> 2000 nM | Cc1cccc([C@@H](C)NC(=O)C23CC(NC(=O)COc4ccc(Cl)c(F)c4)(C2)C3)c1 [Compound 189, 3-[2-(4-chloro-3-fluorophenoxy)acetamido]-N-[(1R)-1-(3-methylphenyl)ethyl]bicyclo[1.1.1]pentane-1-carboxamide]
> 2000 nM | Cn1ccnc1CNC(=O)C12CC(NC(=O)COc3ccc(Cl)c(F)c3)(C1)C2 [Compound 186, 3-[2-(4-chloro-3-fluorophenoxy)acetamido]-N-[(1-methyl-1H-imidazol-2-yl)methyl]bicyclo[1.1.1]pentane-1-carboxamide]
> 2000 nM | O=C(COc1ccc(Cl)c(F)c1)NC12CC(C(=O)NCc3cccc(Cl)c3)(C1)C2 [Compound 219, 3-[2-(4-chloro-3-fluorophenoxy)acetamido]-N-[(3-chlorophenyl)methyl]bicyclo[1.1.1]pentane-1-carboxamide]
> 2000 nM | CC(C)(C)c1ccc(CNC(=O)C23CC(NC(=O)COc4ccc(Cl)c(F)c4)(C2)C3)cc1 [Compound 167, N-[(4-tert-butylphenyl)methyl]-3-[2-(4-chloro-3-fluorophenoxy)acetamido]bicyclo[1.1.1]pentane-1-carboxamide]
> 2000 nM | COc1ccc(CNC(=O)C23CC(NC(=O)COc4ccc(Cl)c(F)c4)(C2)C3)cc1OC [Compound 202, 3-[2-(4-chloro-3-fluorophenoxy)acetamido]-N-[(3,4-dimethoxyphenyl)methyl]bicyclo[1.1.1]pentane-1-carboxamide]
> 2000 nM | Cc1ccc(C)c(CNC(=O)C23CC(NC(=O)COc4ccc(Cl)c(F)c4)(C2)C3)c1 [Compound 190, 3-[2-(4-chloro-3-fluorophenoxy)acetamido]-N-[(2,5-dimethylphenyl)methyl]bicyclo[1.1.1]pentane-1-carboxamide]
< 250 nM | Cc1ccc(CNC(=O)C23CCC(NC(=O)COc4ccc(Cl)c(F)c4)(CC2)CC3O)cc1 (stereo not shown) [Compound 125, 4-[2-(4-chloro-3-fluorophenoxy)acetamido]-2-hydroxy-N-[(4-methylphenyl)methyl]bicyclo[2.2.2]octane-1-carboxamide]
> 2000 nM | Cc1cccc(-c2nc(CNC(=O)C34CC(NC(=O)COc5ccc(Cl)c(F)c5)(C3)C4)cs2)c1 [Compound 214, 3-[2-(4-chloro-3-fluorophenoxy)acetamido]-N-{[2-(3-methylphenyl)-1,3-thiazol-4-yl]methyl}bicyclo[1.1.1]pentane-1-carboxamide]
> 2000 nM | O=C(COc1ccc(Cl)c(F)c1)NC12CC(C(=O)NCCn3cccn3)(C1)C2 [Compound 252, 3-[2-(4-chloro-3-fluorophenoxy)acetamido]-N-[2-(1H-pyrazol-1-yl)ethyl]bicyclo[1.1.1]pentane-1-carboxamide]
> 2000 nM | Cc1occc1CNC(=O)C12CC(NC(=O)COc3ccc(Cl)c(F)c3)(C1)C2 [Compound 244, 3-[2-(4-chloro-3-fluorophenoxy)acetamido]-N-[(2-methylfuran-3-yl)methyl]bicyclo[1.1.1]pentane-1-carboxamide]
> 2000 nM | CC(NC(=O)C12CCC(NC(=O)COc3ccc(Cl)c(F)c3)(CC1)CC2O)c1cccnc1 (stereo not shown) [Compound 140, 4-[2-(4-chloro-3-fluorophenoxy)acetamido]-2-hydroxy-N-[1-(pyridin-3-yl)ethyl]bicyclo[2.2.2]octane-1-carboxamide]
< 250 nM | COc1ccc(CNC(=O)C23CCC(NC(=O)COc4ccc(Cl)c(F)c4)(CC2)CC3O)cc1 (stereo not shown) [Compound 128, 4-[2-(4-chloro-3-fluorophenoxy)acetamido]-2-hydroxy-N-[(4-methoxyphenyl)methyl]bicyclo[2.2.2]octane-1-carboxamide]
< 250 nM | O=C(COc1ccc(Cl)c(F)c1)NC12CC(C(=O)NCCCc3ccc(F)cc3)(C1)C2 [Compound 204, 3-[2-(4-chloro-3-fluorophenoxy)acetamido]-N-[3-(4-fluorophenyl)propyl]bicyclo[1.1.1]pentane-1-carboxamide]
> 2000 nM | O=C(COc1ccc(Cl)c(F)c1)NC12CC(C(=O)NCc3ccccn3)(C1)C2 [Compound 224, 3-[2-(4-chloro-3-fluorophenoxy)acetamido]-N-[(pyridin-2-yl)methyl]bicyclo[1.1.1]pentane-1-carboxamide]
< 250 nM | O=C(COc1ccc(Cl)c(F)c1)NC12CCC(C(=O)NCc3ccc(C(F)(F)F)cn3)(CC1)C(O)C2 (stereo not shown) [Compound 106]
> 2000 nM | O=C(COc1ccc(Cl)c(F)c1)NC12CC(C(=O)NCc3ccc(SC(F)(F)F)cc3)(C1)C2 [Compound 246, 3-[2-(4-chloro-3-fluorophenoxy)acetamido]-N-({4-[(trifluoromethyl)sulfanyl]phenyl}methyl)bicyclo[1.1.1]pentane-1-carboxamide]
> 2000 nM | COc1ccc(CCNC(=O)C23CC(NC(=O)COc4ccc(Cl)c(F)c4)(C2)C3)cc1Cl [Compound 248, 3-[2-(4-chloro-3-fluorophenoxy)acetamido]-N-[2-(3-chloro-4-methoxyphenyl)ethyl]bicyclo[1.1.1]pentane-1-carboxamide]
